In patent US20230219904A1 (SYNGENTA CROP PROTECTION AG, priority 2020, published 2023):

Assays:
Type in all cases: in vivo
Settings in all cases: evaluated after 13 days
[1] = tested on: Echinochloa crus-galh (ECHCG); assay: Pre-emergence herbicidal glasshouse test (Table B1)
How it was run: (§1)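 Plants were grown in standard soil under controlled glasshouse conditions (24/16° C, 14 hours light, 65% humidity) and treated by spraying at 500 g/h unless otherwise indicated. Percentage damage was evaluated after 13 days and expressed on a five-point scale.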

[2] = tested on: Amaranthus retoflexus (AMARE); assay: as above
How it was run: as §1

[3] = tested on: Ipomoea hederacea (IPOHE); assay: as above
How it was run: as §1

Setaria faberi (SETFA) [4] = assay: as above
How it was run: as §1

[5] = tested on: Abutilon theophrasti (ABUTH); assay: as above
How it was run: as §1

[6] = tested on: Echinochloa crus-galh (ECHCG); assay: Post-emergence herbicidal glasshouse test (Table B1)
How it was run: as §1

[7] = tested on: Amaranthus retoflexus (AMARE); assay: as above
How it was run: as §1

[8] = tested on: Ipomoea hederacea (IPOHE); assay: as above
How it was run: as §1

Setaria faberi (SETFA) [9] = assay: as above
How it was run: as §1

[10] = tested on: Abutilon theophrasti (ABUTH); assay: as above
How it was run: as §1

SMILES | PRE Application ECHCG, percentage damage on five-point scale ([1]; applied at 125 g/ha) | PRE Application AMARE, percentage damage on five-point scale ([2]; applied at 125 g/ha) | PRE Application IPOHE, percentage damage on five-point scale ([3]; applied at 125 g/ha) | PRE Application SETFA, percentage damage on five-point scale (Setaria faberi (SETFA) [4]; applied at 125 g/ha) | PRE Application ABUTH, percentage damage on five-point scale ([5]; applied at 125 g/ha) | POST Application ECHCG, percentage damage on five-point scale ([6]; applied at 125 g/ha) | POST Application AMARE, percentage damage on five-point scale ([7]; applied at 125 g/ha) | POST Application IPOHE, percentage damage on five-point scale ([8]; applied at 125 g/ha) | POST Application SETFA, percentage damage on five-point scale (Setaria faberi (SETFA) [9]; applied at 125 g/ha) | POST Application ABUTH, percentage damage on five-point scale ([10]; applied at 125 g/ha) | PRE Application ECHCG, percentage damage on five-point scale ([1]; applied at 500 g/h) | PRE Application AMARE, percentage damage on five-point scale ([2]; applied at 500 g/h) | PRE Application IPOHE, percentage damage on five-point scale ([3]; applied) | PRE Application SETFA, percentage damage on five-point scale (Setaria faberi (SETFA) [4]; applied at 500 g/h) | PRE Application ABUTH, percentage damage on five-point scale ([5]; applied at 500 g/h) | POST Application ECHCG, percentage damage on five-point scale ([6]; applied at 500 g/h) | POST Application AMARE, percentage damage on five-point scale ([7]; applied at 500 g/h) | POST Application IPOHE, percentage damage on five-point scale ([8]; applied at 500 g/h) | POST Application SETFA, percentage damage on five-point scale (Setaria faberi (SETFA) [9]; applied at 500 g/h) | POST Application ABUTH, percentage damage on five-point scale ([10]; applied at 500 g/h)
Cn1nnnc1NC(=O)c1ccc(OC(F)F)c(NC(=O)C2CC2(F)F)c1Cl (centres unmarked) [Compound 1.035] | 3 (3=40-59%) | 5 (5=80-100%) | 3 (3=40-59%) | 4 (4=60-79%) | 5 (5=80-100%) | 4 (4=60-79%) | 4 (4=60-79%) | 4 (4=60-79%) | 4 (4=60-79%) | 4 (4=60-79%) |  |  |  |  |  |  |  |  |  | 
CCC(=O)Nc1c(OC(F)(F)C(F)F)ccc(C(=O)Nc2nnnn2CC)c1Cl [Compound 1.103] |  |  |  |  |  |  |  |  |  |  | 3 (3=40-59%) | 5 (5=80-100%) | 1 (1=0-19%) | 1 (1=0-19%) | 4 (4=60-79%) | 5 (5=80-100%) | 5 (5=80-100%) | 5 (5=80-100%) | 5 (5=80-100%) | 5 (5=80-100%)
CCC(=O)Nc1c(OC(F)(F)F)ccc(C(=O)Nc2nnnn2CC)c1Cl [Compound 1.119] |  |  |  |  |  |  |  |  |  |  | 5 (5=80-100%) | 5 (5=80-100%) | 4 (4=60-79%) | 2 (2=20-39%) | 5 (5=80-100%) | 5 (5=80-100%) | 5 (5=80-100%) | 5 (5=80-100%) | 5 (5=80-100%) | 5 (5=80-100%)
CCOC(C)C(=O)Nc1c(OC(F)(F)F)ccc(C(=O)Nc2nnnn2C)c1Cl (centres unmarked) [Compound 1.065] | 5 (5=80-100%) | 5 (5=80-100%) | 5 (5=80-100%) | 5 (5=80-100%) | 5 (5=80-100%) | 5 (5=80-100%) | 5 (5=80-100%) | 5 (5=80-100%) | 5 (5=80-100%) | 5 (5=80-100%) |  |  |  |  |  |  |  |  |  | 
CCn1nnnc1NC(=O)c1ccc(OC(F)(F)F)c(NC(=O)C(C)F)c1Cl (centres unmarked) [Compound 1.127] |  |  |  |  |  |  |  |  |  |  | 5 (5=80-100%) | 5 (5=80-100%) | 2 (2=20-39%) | 3 (3=40-59%) | 5 (5=80-100%) | 5 (5=80-100%) | 5 (5=80-100%) | 5 (5=80-100%) | 5 (5=80-100%) | 5 (5=80-100%)
